Assay results taken from patent publication US20210380548A1, “Fused [1,2,4]Thiadiazine Derivatives Which Act as KAT Inhibitors of the MYST Family” (CTxT Pty Limited, priority 2017, published 2021).

Tests used:
MOZ-KAT6A [1] = target: T1, MOZ-KAT6A (Homo sapiens, UniProt Q92794, A567V); assay: Revised Acetyltransferase Biochemical Assay, KAT6A; details: Table 8 (MOZ-KAT6A), 1 μM Acetyl coenzyme A
T1 construct: encoding amino acid residues 507 to 778 (Uniprot Q92794-1) of human KAT6A; made in house; host or cells: E. coli BL21 DE3
T1 sequence (Q92794 507-778 A567V limits assumed): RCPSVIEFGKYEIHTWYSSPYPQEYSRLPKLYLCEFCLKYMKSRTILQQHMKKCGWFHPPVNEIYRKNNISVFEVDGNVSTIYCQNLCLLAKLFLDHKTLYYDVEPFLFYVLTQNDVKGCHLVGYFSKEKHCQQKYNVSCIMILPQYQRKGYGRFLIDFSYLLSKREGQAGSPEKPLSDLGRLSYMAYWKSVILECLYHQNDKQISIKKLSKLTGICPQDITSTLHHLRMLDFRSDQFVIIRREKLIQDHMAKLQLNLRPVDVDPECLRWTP

MOZ-KAT6A [2] = target: T1, MOZ-KAT6A; assay: Acetyltransferase biochemical assay (AlphaScreen), KAT6A; details: Table 2 (MOZ-KAT6A); 10 μM Acetyl coenzyme A, histone H3.1, 5 nM enzyme
HBO-KAT7 [3] = target: T2, HBO-KAT7 (Homo sapiens, UniProt O95251); assay: Revised Acetyltransferase Biochemical Assay, KAT7; details: Table 9 (HBO-KAT7), 1 μM Acetyl coenzyme A
T2 construct: encoding amino acid residues 325 to 611 (Uniprot 095251-1) of human KAT7; made in house; host or cells: E. coli BL21 DE3 RIL
T2 sequence (O95251 with tags, fused parts or gaps): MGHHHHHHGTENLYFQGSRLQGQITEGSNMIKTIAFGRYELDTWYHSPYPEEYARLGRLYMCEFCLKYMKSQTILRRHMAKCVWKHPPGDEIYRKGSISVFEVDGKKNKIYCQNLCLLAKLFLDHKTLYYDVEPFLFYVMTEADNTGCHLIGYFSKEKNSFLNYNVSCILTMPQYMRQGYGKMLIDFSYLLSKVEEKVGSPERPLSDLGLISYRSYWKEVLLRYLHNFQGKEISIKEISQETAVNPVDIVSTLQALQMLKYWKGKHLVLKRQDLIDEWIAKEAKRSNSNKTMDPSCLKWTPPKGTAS

TIP60-KAT5 [4] = target: T3, TIP60-KAT5 (Homo sapiens, UniProt Q92993); assay: Revised Acetyltransferase Biochemical Assay, KAT5; details: 10 nM KAT5, 1 μM AcCoA, 100 nM histone H4, 90 min
T3 construct: encoding amino acid residues 2 to 461 (Uniprot Q92993-2) of human KAT5 isoform; made in house; host or cells: E. coli BL21 DE3
T3 sequence (Q92993 2-461 isoform Q92993-2): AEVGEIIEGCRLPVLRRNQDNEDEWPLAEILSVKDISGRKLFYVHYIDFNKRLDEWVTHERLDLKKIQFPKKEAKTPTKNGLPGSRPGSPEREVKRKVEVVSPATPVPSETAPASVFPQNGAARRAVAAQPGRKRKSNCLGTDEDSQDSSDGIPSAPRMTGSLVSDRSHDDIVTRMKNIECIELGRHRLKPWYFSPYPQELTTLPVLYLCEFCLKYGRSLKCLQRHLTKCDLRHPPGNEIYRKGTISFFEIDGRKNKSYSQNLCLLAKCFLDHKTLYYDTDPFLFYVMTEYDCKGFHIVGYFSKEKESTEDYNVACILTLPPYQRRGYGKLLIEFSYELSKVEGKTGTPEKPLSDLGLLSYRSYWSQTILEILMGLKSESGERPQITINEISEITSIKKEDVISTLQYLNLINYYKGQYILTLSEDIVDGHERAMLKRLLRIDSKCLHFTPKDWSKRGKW

TIP60-KAT5 [5] = target: T3, TIP60-KAT5; assay: Acetyltransferase biochemical assay (AlphaScreen), KAT5; details: Table 1 (TIP60-KAT5); 0.4 μM Acetyl coenzyme A, histone H4, 10 nM enzyme
MOF-KAT8 = target: T4, MOF-KAT8 (Homo sapiens, UniProt Q9H7Z6); assay: Revised Acetyltransferase Biochemical Assay, KAT8
T4 sequence (Q9H7Z6 177-447): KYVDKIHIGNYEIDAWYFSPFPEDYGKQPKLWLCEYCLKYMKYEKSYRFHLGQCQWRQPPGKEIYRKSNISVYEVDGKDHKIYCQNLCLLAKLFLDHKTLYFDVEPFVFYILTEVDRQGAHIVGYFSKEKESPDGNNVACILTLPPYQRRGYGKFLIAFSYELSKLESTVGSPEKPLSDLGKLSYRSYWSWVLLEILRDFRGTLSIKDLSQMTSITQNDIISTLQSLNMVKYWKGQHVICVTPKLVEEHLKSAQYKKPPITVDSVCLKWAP

HBO-KAT7 [6] = target: T2, HBO-KAT7; assay: Acetyltransferase biochemical assay (AlphaScreen), KAT7; details: Table 3 (HBO-KAT7); 0.4 μM Acetyl coenzyme A, histone H3.1, 40 nM enzyme

| SMILES | IC50 (MOZ-KAT6A [1]) | IC50 (MOZ-KAT6A [2]) | IC50 (HBO-KAT7 [3]) | IC50 (TIP60-KAT5 [4]) | IC50 (TIP60-KAT5 [5]) | IC50 (MOF-KAT8) | IC50 (HBO-KAT7 [6]) |
| --- | --- | --- | --- | --- | --- | --- | --- |
| O=C(NCC(CO)c1ccccc1)C1=Nc2ccccc2S(=O)(=O)N1 (stereo not shown) [Example 2, N-(3-Hydroxy-2-phenylpropyl)-2H-benzo[e][1,2,4]thiadiazine-3-carboxamide 1,1-dioxide] | 5140 nM | 38.1 µM | 28000 nM | 60.7 µM | > 125 µM | > 125 µM | – |
| O=C(NCC(CCO)c1ccccc1)C1=Nc2ccccc2S(=O)(=O)N1 (stereo not shown) [Example 3, N-(4-Hydroxy-2-phenylbutyl)-2H-benzo[e][1,2,4]thiadiazine-3-carboxamide 1,1-dioxide] | 4950 nM | 7.66 µM | 49900 nM | 99.6 µM | 96.5 µM | 12.2 µM | – |
| O=C(NCCc1ccccc1O)C1=Nc2ccccc2S(=O)(=O)N1 [Example 29, N-(2-Hydroxyphenethyl)-2H-benzo[e][1,2,4]thiadiazine-3-carboxamide 1,1-dioxide] | – | 28.6 µM | – | – | > 125 µM | – | 84.4 µM |
| O=C(NCCc1ccccc1-c1cccnc1)C1=Nc2ccccc2S(=O)(=O)N1 [Example 34, N-(2-(Pyridin-3-yl)phenethyl)-2H-benzo[e][1,2,4]thiadiazine-3-carboxamide 1,1-dioxide] | 5780 nM | 51.6 µM | 11500 nM | 70.3 µM | > 125 µM | – | 60.3 µM |
| N#Cc1ccccc1CCNC(=O)C1=Nc2ccccc2S(=O)(=O)N1 [Example 35, N-(2-Cyanophenethyl)-2H-benzo[e][1,2,4]thiadiazine-3-carboxamide 1,1-dioxide] | – | 59.9 µM | – | – | > 125 µM | – | 31.6 µM |
| O=C(NCC(c1ccccc1)n1cccc1)C1=Nc2ccccc2S(=O)(=O)N1 (stereo not shown) [Example 54, N-(2-phenyl-2-(1H-pyrrol-1-yl)ethyl)-2H-benzo[e][1,2,4]thiadiazine-3-carboxamide 1,1-dioxide] | – | 8.87 µM | – | – | 57.9 µM | – | 4.01 µM |
| O=C(NCC(c1ccccc1)c1nc(CO)no1)C1=Nc2ccc(I)cc2S(=O)(=O)N1 (stereo not shown) [Example 59, N-(2-(3-(hydroxymethyl)-1,2,4-oxadiazol-5-yl)-2-phenylethyl)-7-iodo-2H-benzo[e][1,2,4]thiadiazine-3-carboxamide 1,1-dioxide] | 32 nM | – | 403 nM | 0.721 µM | – | 26.8 µM | – |
| O=C(NCCc1ccccn1)C1=Nc2ccc(Br)cc2S(=O)(=O)N1 [Example 79] | – | 35.4 µM | – | – | 87.8 µM | – | 29.5 µM |
| O=C(NCCc1cccnc1)C1=Nc2ccc(Br)cc2S(=O)(=O)N1 [Example 80] | – | 58.8 µM | – | – | > 125 µM | – | 104 µM |
| O=C(NCC(c1ccccc1)c1ncco1)C1=Nc2cnccc2S(=O)(=O)N1 (stereo not shown) [Example 98] | – | 36.1 µM | – | – | > 125 µM | – | 68.6 µM |
| O=C(NCC(c1ccccc1)c1ncco1)C1=Nc2ncccc2S(=O)(=O)N1 (stereo not shown) [Example 99] | – | 15.8 µM | – | – | > 125 µM | – | 9.16 µM |
| Nc1ccc(CCNC(=O)C2=Nc3ccc(I)cc3S(=O)(=O)N2)cc1 [Example 100] | – | 41.7 µM | – | – | 40.5 µM | – | 112 µM |
| O=C(NCCc1cccnc1)C1=Nc2ccc(I)cc2S(=O)(=O)N1 [Example 108] | – | 11.6 µM | – | – | 77.7 µM | – | 50.1 µM |
| COC(=O)NC(CNC(=O)C1=Nc2ccccc2S(=O)(=O)N1)c1ccccc1 (stereo not shown) [Example 129] | 250 nM | – | 24800 nM | 58.3 µM | > 125 µM | > 125 µM | > 125 µM |
| CS(=O)(=O)Nc1ccc2c(c1)S(=O)(=O)NC(C(=O)NCC(c1ccccc1)c1ncco1)=N2 (stereo not shown) [Example 153, 7-(Methylsulfonamido)-N-(2-(oxazol-2-yl)-2-phenylethyl)-2H-benzo[e][1,2,4]thiadiazine-3-carboxamide 1,1-dioxide] | 54 nM | – | 672 nM | 3.37 µM | 38.7 µM | 20.1 µM | 3.41 µM |
| O=C(NCC(c1ncco1)c1ccccc1CO)C1=Nc2ccccc2S(=O)(=O)N1 (stereo not shown) [Example 157] | 8800 nM | – | 22300 nM | > 125 µM | – | > 125 µM | – |
| O=C(NCC(c1cccc(-c2ccccc2)c1)c1ncco1)C1=Nc2ccccc2S(=O)(=O)N1 (stereo not shown) [Example 158] | 1730 nM | – | 5460 nM | 26.8 µM | – | 30.7 µM | – |
| O=C(NCC(c1cccc(I)c1)c1ncco1)C1=Nc2ccccc2S(=O)(=O)N1 (stereo not shown) [Example 160, N-(2-(3-iodophenyl)-2-(oxazol-2-yl)ethyl)-2H-benzo[e][1,2,4]thiadiazine-3-carboxamide 1,1-dioxide] | 471 nM | – | 1660 nM | 13.2 µM | – | 4.89 µM | – |
| O=C(NCC(c1ncco1)c1ccccc1-c1ccccc1)C1=Nc2ccccc2S(=O)(=O)N1 (stereo not shown) [Example 161] | 269 nM | – | 4390 nM | 9.16 µM | – | 23 µM | – |
| N#Cc1cccc(C(CNC(=O)C2=Nc3ccccc3S(=O)(=O)N2)c2ncco2)c1 (stereo not shown) [Example 227, N-(2-(3-Cyanophenyl)-2-(oxazol-2-yl)ethyl)-2H-benzo[e][1,2,4]thiadiazine-3-carboxamide 1,1-dioxide] | 1360 nM | – | 4480 nM | 98.7 µM | – | > 125 µM | – |
| O=C(NCC(F)(F)c1ccccc1OC(F)F)C1=Nc2ccc(Cl)cc2S(=O)(=O)N1 [Example 232, 7-chloro-N-(2-(2-(difluoromethoxy)phenyl)-2,2-difluoroethyl)-2H-benzo[e][1,2,4]thiadiazine-3-carboxamide 1,1-dioxide] | 252 nM | – | 393 nM | 2.74 µM | – | 35 µM | – |

More lines, now with the values ahead:

| IC50 (MOZ-KAT6A [1]) | IC50 (MOZ-KAT6A [2]) | IC50 (HBO-KAT7 [3]) | IC50 (TIP60-KAT5 [4]) | IC50 (TIP60-KAT5 [5]) | IC50 (MOF-KAT8) | IC50 (HBO-KAT7 [6]) | SMILES |
| --- | --- | --- | --- | --- | --- | --- | --- |
| 270 nM | 1.35 µM | 1000 nM | 14.6 µM | 33.2 µM | > 125 µM | – | COc1ccc2c(c1)S(=O)(=O)NC(C(=O)NCC(c1ccccc1)c1ccccc1)=N2 [Example 19, N-(2,2-diphenylethyl)-7-methoxy-2H-benzo[e][1,2,4]thiadiazine-3-carboxamide 1,1-dioxide] |
| 490 nM | 6.05 µM | 1250 nM | 13.8 µM | 29.5 µM | 62.8 µM | – | COC(=O)c1ccc2c(c1)S(=O)(=O)NC(C(=O)NCC(c1ccccc1)c1ccccc1)=N2 [Example 20] |
| – | 8.23 µM | – | – | 15.1 µM | – | 5.84 µM | O=C(NCCc1ccccc1I)C1=Nc2ccccc2S(=O)(=O)N1 [Example 31, N-(2-Iodophenethyl)-2H-benzo[e][1,2,4]thiadiazine-3-carboxamide 1,1-dioxide] |
| – | 5.66 µM | – | – | 36.5 µM | – | 4.51 µM | O=C(NCC(c1ccccc1F)n1cccc1)C1=Nc2ccccc2S(=O)(=O)N1 (stereo not shown) [Example 55, N-(2-(2-fluorophenyl)-2-(1H-pyrrol-1-yl)ethyl)-2H-benzo[e][1,2,4]thiadiazine-3-carboxamide 1,1-dioxide] |
| – | 10.6 µM | – | – | 27.1 µM | – | 60.2 µM | O=C(NCCc1cccc(O)c1)C1=Nc2ccc(I)cc2S(=O)(=O)N1 [Example 102] |
| – | 12 µM | – | – | 20.8 µM | – | 23.3 µM | O=C(NCCc1ccccn1)C1=Nc2ccc(I)cc2S(=O)(=O)N1 [Example 107] |
| – | 4.58 µM | – | – | 18.5 µM | – | 4.11 µM | COC(=O)C(CNC(=O)C1=Nc2ccccc2S(=O)(=O)N1)c1ccccc1 (stereo not shown) [Example 112, Methyl 3-(1,1-dioxido-2H-benzo[e][1,2,4]thiadiazine-3-carboxamido)-2-phenylpropanoate] |
| 46 nM | – | 412 nM | 0.208 µM | 2.29 µM | > 125 µM | 3.02 µM | O=C(NCCc1ccccc1C(F)(F)F)C1=Nc2ccc(I)cc2S(=O)(=O)N1 [Example 118] |
| 17 nM | – | 140 nM | 0.224 µM | 1.24 µM | 41.5 µM | 3.52 µM | O=C(NCC(c1ccccc1)c1ncco1)C1=Nc2ccc(C(F)(F)F)cc2S(=O)(=O)N1 (stereo not shown) [Example 120] |
| 47 nM | 0.168 µM | 419 nM | 0.646 µM | 3.13 µM | – | 2.53 µM | O=C(NCC(c1ccccc1)c1ncco1)C1=Nc2ccc(-c3cscn3)cc2S(=O)(=O)N1 (stereo not shown) [Example 135] |
| 1390 nM | 9.64 µM | 1210 nM | 13.7 µM | 36.8 µM | – | 7.17 µM | CC(CNC(=O)C1=Nc2ccccc2S(=O)(=O)N1)(c1ccccc1)c1ccccc1 [Example 206] |
